Here are results for 3 molecules from patent US8460669B2, “Compositions and methods for identifying response targets and treating flavivirus infection responses” (Academia Sinica, priority 2005, dated 2013).

Experiment [1] concerns Dengue virus. The experiment can be described thus: ELISA of receptor.Fc interaction with Dengue virus. It is filed as binding. To be noted: for interaction of receptor.Fc with Dengue virus (ELISA): receptor.Fc 1 μg, DV 5×10^6. The procedure:
One μg of each receptor.Fc fusion protein was coated onto microtiter plates overnight at 4° C. DV (5×10^6 particles) of strain 16681 (a DEN2 strain) in binding buffer (1% BSA, 2 mM CaCl2, 2 mM MgCl2, 50 mM Tris-HCl pH 7.5, 150 mM NaCl) was then added to the plates and the plates were incubated for 2 hours. After washing non-bound virus, a biotinylated anti-DEN2 envelope protein antibody (Wu et al., J Virol, 2002. 76(8): p. 3596-604) was applied to bind to the virus for 1 hour. Diluted horseradish peroxidase-conjugated streptavidin was then added to the plates, followed by a 1 hour incubation. TMB substrate was then added and the plates were read using an ELISA reader at OD450 nm.
The microtiter plate assay was repeated in the presence of EDTA (10 mM) to chelate Ca^++ cations.
The microtiter plate assay was also repeated for DVLR1/CLEC5A.Fc fusion protein with DV particles (5×10^6) that had been 1) preincubated with 500 U of the glycosidase PNGaseF (New England Biolabs, Inc.) overnight at 37° C.; or 2) treated with dithiothreitol (DTTI) (0.1M); or 3) incubated at 95° C. for 5 minutes; or 4) UV irradiated for 5 minutes. The results are shown in FIG. 8D (asterisks indicate where the binding affinity of DVLR1/CLEC5A.Fc fusion protein is altered by modification of the virus relative to non-treated virus; ** p<0.01, *** p<0.001, Student's t test). […]
For orientation: An ELISA detects its analyte on a solid surface through an enzyme-linked reagent.

Experiment [2] in a line: Enzyme linked immunoassay of receptor.Fc fusions on immobilized GLPS-F3. The experiment is classed as binding, Ganoderma lucidum. The note with it: GLPS-F3 100 ng/well; receptor.Fc 1 μg/ml. The method, then:
The interactions of polysaccharides with receptor.Fc fusion proteins was further investigated by performing an enzyme-linked immunoassay, which was based on immobilizing GLPS-F3 through both hydrophilic and hydrophobic forces onto microtiter plates (polysytrene). In this format, the number of different receptor.Fc fusions for profiling was increased in comparison to Example 7. To optimize the quantity of GLPS-F3 for immobilization, various amounts (3-1000 ng/well, diluted in 100 mM Tris buffer, pH9.5) of biotinylated-GLPS-F3 (Biotin-GLPS-F3) were coated onto MaxiSorp StarWell microtiter plates (50 μL/well; Nunc). The plates were incubated overnight at 4° C., and then the wells were washed twice with TBST, followed by blocking with 200 μL blocking buffer (2% BSA/TBST) for 1 hour at room temperature. Peroxidase-conjugated avidin (1:5000 dilution, Vector Laboratories) and TMB (tetramethylbenzidine) substrate was then used for detection of immobilized biotinylated GLPS-F3.
The interaction between GLPS-F3 and receptor.Fc was then tested. […] Wells were incubated with 100 μL TMB substrate for 15 min after TBST washing and read at 450 nm in a Fusion plate reader (Perkin Elmer). […]

The target in the next experiment is T1, Dectin-1.Fc (Homo sapiens, UniProt Q9BXN2).
T1 construct: The extracellular domains of lectin receptors, TREMs and TLTs were cloned by the reverse-transcriptase polymerase chain reaction (RT-PCR); made in house; host or cells: 293-F (FreeStyle 293) cells
T1 sequence (Q9BXN2 66-247 limits assumed): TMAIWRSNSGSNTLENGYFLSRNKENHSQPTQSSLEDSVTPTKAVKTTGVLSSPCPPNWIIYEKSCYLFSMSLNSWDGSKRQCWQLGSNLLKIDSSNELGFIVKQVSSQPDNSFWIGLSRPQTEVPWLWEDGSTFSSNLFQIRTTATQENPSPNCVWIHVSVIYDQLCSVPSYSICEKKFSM
The experiment can be described thus: Immunosorbent dot binding assay with Dectin-1.Fc. The note with it: competitor 0.1 μg-1000 μg, or EDTA 10 mM in TBST.

In the next experiment the target is T2, DC-SIGNR.Fc (Homo sapiens, UniProt Q9H2X3).
T2 construct: The extracellular domains of lectin receptors, TREMs and TLTs were cloned by the reverse-transcriptase polymerase chain reaction (RT-PCR); made in house; host or cells: 293-F (FreeStyle 293) cells
T2 sequence (Q9H2X3 71-399): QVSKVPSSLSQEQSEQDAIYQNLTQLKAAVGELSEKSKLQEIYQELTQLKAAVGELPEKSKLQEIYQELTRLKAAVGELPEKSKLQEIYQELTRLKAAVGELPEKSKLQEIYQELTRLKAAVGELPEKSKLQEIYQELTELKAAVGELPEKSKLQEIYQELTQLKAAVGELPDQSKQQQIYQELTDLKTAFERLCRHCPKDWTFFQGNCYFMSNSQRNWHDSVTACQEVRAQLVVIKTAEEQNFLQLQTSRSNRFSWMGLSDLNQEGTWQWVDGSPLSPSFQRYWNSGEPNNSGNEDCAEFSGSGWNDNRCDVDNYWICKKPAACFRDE
The experiment is described as follows: Immunosorbent dot binding assay with DC-SIGNR.Fc. The note with it: EDTA 10 mM in TBST.

Another experiment concerns the target T3, KCR.Fc (Mus musculus, UniProt P70194).
T3 construct: the extracellular domains of DVLR1/CLEC5A (MDL-1), Dectin-1, KCR, and DC-SIGN (as a positive control) were fused to the Fc portion of human IgG1; made in house; host or cells: 293-F (FreeStyle 293) cells
T3 sequence (P70194 70-548 limits assumed): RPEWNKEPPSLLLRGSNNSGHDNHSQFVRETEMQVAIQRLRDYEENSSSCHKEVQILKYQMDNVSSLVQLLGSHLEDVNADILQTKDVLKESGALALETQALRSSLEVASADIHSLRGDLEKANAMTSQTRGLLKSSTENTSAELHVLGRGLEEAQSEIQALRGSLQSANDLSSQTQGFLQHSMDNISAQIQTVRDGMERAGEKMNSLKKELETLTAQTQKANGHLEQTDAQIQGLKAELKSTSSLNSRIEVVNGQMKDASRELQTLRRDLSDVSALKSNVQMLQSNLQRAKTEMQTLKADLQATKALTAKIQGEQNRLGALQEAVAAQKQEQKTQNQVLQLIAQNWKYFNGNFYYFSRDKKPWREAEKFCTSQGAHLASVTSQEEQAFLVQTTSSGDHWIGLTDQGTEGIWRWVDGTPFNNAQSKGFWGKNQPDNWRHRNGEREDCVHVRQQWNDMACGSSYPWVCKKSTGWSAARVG
The experiment can be described thus: Immunosorbent dot binding assay with KCR.Fc. To be noted: EDTA 10 mM in TBST.

Another experiment concerns the target T4, TLT-2.Fc (Homo sapiens, UniProt Q5T2D2).
T4 construct: The extracellular domains of lectin receptors, TREMs and TLTs were cloned by the reverse-transcriptase polymerase chain reaction (RT-PCR); made in house; host or cells: 293-F (FreeStyle 293) cells
T4 sequence (Q5T2D2 19-268 limits assumed): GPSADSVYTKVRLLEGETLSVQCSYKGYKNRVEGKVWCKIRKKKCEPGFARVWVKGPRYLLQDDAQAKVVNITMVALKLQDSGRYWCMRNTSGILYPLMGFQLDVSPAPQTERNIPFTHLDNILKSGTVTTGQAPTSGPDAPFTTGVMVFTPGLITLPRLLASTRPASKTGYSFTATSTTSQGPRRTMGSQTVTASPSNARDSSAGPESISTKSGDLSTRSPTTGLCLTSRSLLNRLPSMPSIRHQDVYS
The experiment can be described thus: Immunosorbent dot binding assay with TLT-2.Fc. The note with it: EDTA 10 mM in TBST.

Experiment [3] deals with Dengue virus. The experiment is described as follows: Immunoprecipitation of Dengue virus with receptor.Fc. The note with it: receptor.Fc 5 μg; DV 5×10^6; listed as DC-SIGN.Fc. It is filed as binding. The procedure:
The results are depicted in FIG. 8A (** indicates p<0.01, *** indicates p<0.001 (Student's t test)). […] Specifically, 5×10^6 Dengue virus particles were incubated with 5 μg of each protein, and then Protein A beads were added. The resulting immunocomplexes were washed, separated by SDS-PAGE, and transferred onto nitrocellulose membrane. The membrane was then probed with biotinylated anti-DEN2 envelope protein antibody and developed with horseradish peroxidase-conjugated streptavidin.
In FIG. 16b, complexes of DV (5×10^6 PFU) with receptor.Fc (5 μg) were immunoprecipitated and detected on westerns with mAb to DV envelope (E) protein. […] FIGS. 16d and 16e show sugar competition assays wherein both DC-SIGN (CLEC4L) and DVLR1/CLEC5A increase DV binding to human 293T cells (FIG. 16d), while addition of sugars inhibits biotinylated DV binding to DC-SIGN- (left panel) or DLVR1/CLEC5A- (right panel) transfected 293T cells in a dose-dependent manner as determined by flow cytometry (FIG. 16e). According to FIG. 16e, MFI represents mean fluorescence intensity. Units (U) for monosaccharide (mannose and fucose) and polysaccharide (mannan) are mM and mg/ml, respectively. […] Data are expressed as the mean±s.d. of three independent experiments. Two-tailed, Student's t-tests were performed. […]

Entries after “also recorded” stand apart in the source; their conditions may differ.

With “Fc.DC-SIGNR: DC-SIGNR (CLEC4M) receptor.Fc fusion protein”, the “interaction of receptor.Fc with Dengue virus (ELISA)” value in the experiment with Dengue virus [1] is “able to capture DV2”. Besides, the “binding ability to GLPS-F3” value in experiment [2] was “minimal binding ability”.
In the case of `O=C(O)CN(CCN(CC(=O)O)CC(=O)O)CC(=O)O` [EDTA, Ethylene Diamine Tetra Acetic Acid], on Dectin-1.Fc, the “inhibition of the interaction between Dectin-1.Fc and F3” value is “not”. Also, on DC-SIGNR.Fc, the “inhibition of the interaction of F3 with DC-SIGNR.Fc” value is recorded as “completely oabolished”. At KCR.Fc, the “inhibition of the interaction of F3 with KCR.Fc” value is on record as “completely oabolished”. Moreover, the “inhibition of the interaction of F3 with TLT2.Fc” value on TLT-2.Fc is given as “not”.

B1: Fc.DC-SIGN: DC-SIGN (CLEC4L) extracellular domain fused to human IgG1 Fc (protein)
chain: QVSKVPSSISQEQSRQDAIYQNLTQLKAAVGELSEKSKLQEIYQELTQLKAAVGELPEKSKLQEIYQELTRLKAAVGELPEKSKLQEIYQELTWLKAAVGELPEKSKMQEIYQELTRLKAAVGELPEKSKQQEIYQELTRLKAAVGELPEKSKQQEIYQELTRLKAAVGELPEKSKQQEIYQELTQLKAAVERLCHPCPWEWTFFQGNCYFMSNSQRNWHDSITACKEVGAQLVVIKSAEEQNFLQLQSSRSNRFTWMGLSDLNQEGTWQWVDGSPLLPSFKQYWNRGEPNNVGEEDCAEFSGNGWNDDKCNLAKFWICKKSAASCSRDEEQFLSPAPATPNPPPA
modifications: left off: a dimerising Fc or GST
As to B1, the “immunoprecipitation of Dengue virus (E protein detected)” value with Dengue virus [3] is recorded as “able to immunoprecipitate DV; also recorded: detected”. Besides, the “binding to DV pretreated with heat or dithiothreitol” value in the experiment on Dengue virus [1] (95° C. 5 min or DTT 0.1 M) was “not”. Also, the “Ca^++ dependence of binding to Dengue virus” value in the experiment with Dengue virus [1] (EDTA 10 mM) was “Ca^++ dependent; also recorded: Ca^++-dependent”. Besides, the “interaction of receptor.Fc with Dengue virus (ELISA)” value is reported as “binds” with Dengue virus [1] and “able to capture DV2” in the experiment on Dengue virus [1] (listed as DC-SIGN.Fc).
